1 compound from patent US11535851B2, “Reagents for treatment of hepatitis B virus (HBV) infection and use thereof” (priority 2016, dated 2022) can be followed below.

Type in all cases: in vivo
Assay [1] concerns HBV genotype C. Kind of assay: Serum HBV DNA in HBV-infected PXB chimeric mouse model. As to conditions: treatment arm of daily ETV only; FIG. 7. The protocol: (§1) The in vivo effect of the anti-HBV shmiR or shRNA-expressing AAV particles (as illustrated in FIG. 5) was determined in a PXB chimeric mouse model infected de novo with HBV inoculum. Inhibition of various HBV parameters was assessed: (i) expression of HBV viral transcripts, (ii) extracellular HbsAg, HBcAg and HBeAg, (iii) extracellular and intracellular HBV DNA, and (iv) formation of cccDNA.
(§2) Chimeric PXB mice (PXB-mice®) were obtained from PhoenixBio. All mice were housed individually at 23±5° C. and a humidity of 55±25% humidity, exposed to 12 hours-light/dark cycles and fed and watered ad libitum throughout the experiment. […] To determine baseline HBV infection, blood was taken from mice at days −28, −21, −14 and −7 (i.e., 0, 7, 14 and 21 days post inoculation, respectively), from which human albumin (h-Alb) concentration and serum concentrations of HBV DNA, HBsAg and HBeAg were determined. These permit detection of liver damage in test animals—no adverse reactions were detected.
Remaining whole blood was centrifuged to separate serum for HBV DNA quantification, HbsAg, HBcAg and HBeAg analysis. […] Synthetic HBV DNA was used to determine the concentration of the HBV DNA standard which was then used in quantification of the serum HBV DNA level. […]

Assay [2] concerns HBV genotype C. Kind of assay: Serum HBsAg in HBV-infected PXB chimeric mouse model. To be noted: PXB mice, 91 day study; FIG. 8. On the procedure:
as §1, §2
(§3) Serum HBsAg and HBeAg concentrations were determined using ChemiLuminescence ImmunoAssay (CLIA) e.g., as developed by Abbott ([…]® SYSTEM). […]
(§4) Following administration of the treatment (day 0), animals were then incubated for a further 91 days. […] HBeAg levels were measured every other week through Day 70 and then weekly thereafter until the conclusion of the 91 day experiment.

For another assay, the system named is HBV viral transcripts. Kind of assay: Liver HBV RNA levels by RT-QPCR in PXB chimeric mouse model. As to conditions: FIG. 11.
The test system of a further assay is HBV cccDNA. Kind of assay: Liver HBV cccDNA by real-time PCR in PXB chimeric mouse model. To be noted: ETV; FIG. 12, right panel. On the procedure: HBV-infected mice treated with saline served as the negative controls. […] For the anti-HBV ddRNAi treatment groups, ssAAV8-HBV-shRNAx3-v1, scAAV8-HBV-shRNAx3-v1 or ssAAV8-HBV-shmiRx3-v1 was administered once at a dose of 2×10E+13 vg/kg by a low pressure tail vein injection at Day 0. Co-treated animals started daily ETV at Day 1 or were dosed the first time with PEG-IFN on Day 4
After the completion of blood sampling on Day 91, all the surviving animals were kept under isoflurane anesthesia and sacrificed by cardiac puncture and exsanguination. Once sacrificed, whole livers were harvested from mice and weighed. A slice of liver of 3 to 5 mm in thickness was obtained from left lateral lobe and cut into cubes approximately 1 to 2 mm on a side. […] After the incubation, the RNAlater® solution was removed and the liver pieces were stored at −80° C. for subsequent quantification of the various hepatic HBV DNA and RNAs as well as expression levels of recombinant AAV derived shRNA or shmiR RNAs.
To determine the level of hepatic HBV DNA following treatment, HBV DNA was extracted from frozen RNAlater®-preserved liver tissue using the DNeasy® Blood & Tissue Kits (Qiagen K. K., Tokyo, Japan). The DNA was dissolved in 200 μL nuclease-free water, after which the concentration of the DNA solution was determined using BioPhotometer 6131 (Eppendorf Co., Ltd., Tokyo, Japan). […]
(In general: Real-time PCR tracks product formation cycle by cycle.)

Assay [3] relates to HBV genotype C. Kind of assay: Intracellular (liver) HBV DNA by quantitative PCR in PXB chimeric mouse model. As to conditions: entecavir or pegylated interferon alone; FIG. 12, left panel.
Assay [4] concerns HBV genotype C. Kind of assay: Serum HBeAg in HBV-infected PXB chimeric mouse model. The protocol:
as §1, §2, §3, §4

Molecules are shown by their SMILES.

Description for HBV viral transcripts: After the completion of blood sampling on Day 91, all the surviving animals were kept under isoflurane anesthesia and sacrificed by cardiac puncture and exsanguination. Once sacrificed, whole livers were harvested from mice and weighed. A slice of liver of 3 to 5 mm in thickness was obtained from left lateral lobe and cut into cubes approximately 1 to 2 mm on a side. These liver cubes were transferred into a labelled tube and immersed in RNAlater® solution (Ambion, Thermo Fisher Scientific Inc., Waltham, Mass., USA) as quickly as possible. The liver samples were incubated in ≥5 volumes of RNAlater® overnight at 4° C. to allow the solution to penetrate the tissue. After the incubation, the RNAlater® solution was removed and the liver pieces were stored at −80° C. for subsequent quantification of the various hepatic HBV DNA and RNAs as well as expression levels of recombinant AAV derived shRNA or shmiR RNAs.
Using primer/probe sets that are located near each of the RNAi-induced cleavage sites, the levels of HBV RNA was assessed by RT-QPCR (FIG. 11).

`C=C1[C@H](CO)[C@@H](O)C[C@@H]1n1cnc2c(=O)[nH]c(N)nc21` [entecavir]: the “drop in serum HBV DNA levels” value in the assay on HBV genotype C [1] is on record as 2.63 log. Further, the “drop in HBsAg levels” value with HBV genotype C [2] is 0.46 log. In the assay with HBV viral transcripts (monotherapy, through 13 weeks of treatment, RT-QPCR), the “reduction of HBV RNA levels / HBV transcripts” value is reported as roughly 50%. Besides, the “HBV RNA levels (liver)” value in the assay with HBV viral transcripts (transcripts corresponding to shmiR-6, shmiR-15 and shmiR-12) is listed as “only modestly reduced”. The “reduction of cccDNA” value in the assay on HBV cccDNA is listed as “slightly more than a one log reduction”. Besides, the “drop in intracellular DNA levels” value in the assay with HBV genotype C [3] was found to be 2 logs. For the same compound, the “drop in HBeAg levels” value with HBV genotype C [4] (PXB mice, 91 day study, FIG. 9) stood at 0.37 log; in the assay with HBV genotype C [4] (entecavir only), 0.37 log.
